Source: US7632918B2, “Semi-synthetic glycopeptides with antibiotic activity” (Novartis Vaccines and Diagnostics, Inc., priority 2005, dated 2009)
In brackets after ≈: the same amount, converted by molar mass.

Tests used:
Test in all cases: MIC, broth microdilution in Meuller-Hinton broth (NCCLS)
602 S. haemolyticus = format: cell-based, Staphylococus haemolyticus; conditions: clinical isolate
Protocol: (§1) Antibacterial activity in vitro was investigated by broth microdilution method in Meuller-Hinton broth as recommended by NCCLS. All strains tested were clinical isolates either sensitive or resistant to natural glycopeptides. Results are reported in the tables as MIC (minimal inhibitory concentration) in μg/ml.
(§2) The glycopeptides were tested against a variety of strains, indicated below, including Staphylococus epidermidis, Staphylococus haemolyticus, glycopeptides-intermediate Staphylococus aureus (GISA), glocopeptide-sensitive Enterococcus faecalis (GSE), and glocopeptide-resistant Enterococcus faecalis (GRE). Results are shown in the table as minimum inhibitory concentration (MIC) in units of μg/ml: […]

560 E. faecalis (GRE) = format: cell-based, Enterococcus faecalis; conditions: glycopeptide-resistant clinical isolate
Protocol: as §1, §2

559 E. faecalis (GSE) = format: cell-based, Enterococcus faecalis; conditions: glycopeptide-sensitive clinical isolate
Protocol: as §1, §2

533 S. epidermidis = format: cell-based, Staphylococus epidermidis; conditions: clinical isolate
Protocol: as §1, §2

3798 S. aureus (GISA) = format: cell-based, Staphylococus aureus; conditions: glycopeptides-intermediate clinical isolate
Protocol: as §1, §2

3797 S. aureus (GISA) = format: cell-based, Staphylococus aureus; conditions: glycopeptides-intermediate clinical isolate
Protocol: as §1, §2

569 E. faecium (GRE) = format: cell-based; conditions: glycopeptide-resistant clinical isolate
Protocol: as §1, §2

568 E. faecium (GSE) = format: cell-based; conditions: glycopeptide-sensitive clinical isolate
Protocol: as §1, §2

| Structure (SMILES) | MIC 602 S. haemolyticus (602 S. haemolyticus) [µg/mL] | MIC 560 E. faecalis (GRE) (560 E. faecalis (GRE)) [µg/mL] | MIC 559 E. faecalis (GSE) (559 E. faecalis (GSE)) [µg/mL] | MIC 533 S. epidermidis (533 S. epidermidis) [µg/mL] | MIC 3798 S. aureus (GISA) (3798 S. aureus (GISA)) [µg/mL] | MIC 3797 S. aureus (GISA) (3797 S. aureus (GISA)) [µg/mL] | MIC 569 E. faecium (GRE) (569 E. faecium (GRE)) [µg/mL] | MIC 568 E. faecium (GSE) (568 E. faecium (GSE)) [µg/mL] |
| --- | --- | --- | --- | --- | --- | --- | --- | --- |
| CNC(CC(C)C)C(=O)NC1C(=O)NC(CC(N)=O)C(=O)NC2C(=O)NC3C(=O)NC(C(=O)NC(C(=O)O)c4cc(O)cc(O)c4-c4cc3ccc4O)C(OC3CC(C)(N)C(O)C(C)O3)c3ccc(cc3)Oc3cc2cc(c3OC2OC(CO)C(O)C(O)C2OC2CC(C)(NC(=O)[C@@H](N)Cc3ccc(OCc4ccccc4)cc3)C(O)C(C)O2)Oc2ccc(cc2Cl)C1O (stereo partly drawn) [Compound 228] | 4 (≈ 2.21 µM) | >64 | 2 (≈ 1.1 µM) | 4 (≈ 2.21 µM) | 16 (≈ 8.83 µM) | 16 (≈ 8.83 µM) | >64 | 2 (≈ 1.1 µM) |
| CNC(CC(C)C)C(=O)NC1C(=O)NC(CC(N)=O)C(=O)NC2C(=O)NC3C(=O)NC(C(=O)NC(C(=O)O)c4cc(O)cc(O)c4-c4cc3ccc4O)C(OC3CC(C)(N)C(O)C(C)O3)c3ccc(cc3)Oc3cc2cc(c3OC2OC(CO)C(O)C(O)C2OC2CC(C)(NC(=O)[C@H](N)Cc3ccccc3)C(O)C(C)O2)Oc2ccc(cc2Cl)C1O (stereo partly drawn) [Compound 229] | 1 (≈ 0.586 µM) | >64 | 0.5 (≈ 0.293 µM) | 1 (≈ 0.586 µM) | >32 | >32 | >64 | 0.25 (≈ 0.147 µM) |
| CNC(CC(C)C)C(=O)NC1C(=O)NC(CC(N)=O)C(=O)NC2C(=O)NC3C(=O)NC(C(=O)NC(C(=O)O)c4cc(O)cc(O)c4-c4cc3ccc4O)C(OC3CC(C)(N)C(O)C(C)O3)c3ccc(cc3)Oc3cc2cc(c3OC2OC(CO)C(O)C(O)C2OC2CC(C)(NC(=O)[C@@H](N)Cc3ccccc3)C(O)C(C)O2)Oc2ccc(cc2Cl)C1O (stereo partly drawn) [Compound 230] | 4 (≈ 2.35 µM) | >64 | 2 (≈ 1.17 µM) | 4 (≈ 2.35 µM) | >32 | >32 | >64 | 2 (≈ 1.17 µM) |
| CCCCCCCCOc1ccc(CNC(CCCN)C(=O)NC2(C)CC(OC3C(Oc4c5cc6cc4Oc4ccc(cc4Cl)C(O)C4NC(=O)C(NC(=O)C6NC(=O)C(CC(N)=O)NC(=O)C(NC(=O)C(CC(C)C)NC)C(O)c6ccc(c(Cl)c6)O5)c5ccc(O)c(c5)-c5c(O)cc(O)cc5C(C(=O)O)NC4=O)OC(CO)C(O)C3O)OC(C)C2O)cc1 (stereo not drawn) [Compound 241] | 1 (≈ 0.561 µM) | 16 (≈ 8.98 µM) | 1 (≈ 0.561 µM) | 0.5 (≈ 0.281 µM) | 2 (≈ 1.12 µM) | 2 (≈ 1.12 µM) | 16 (≈ 8.98 µM) | 1 (≈ 0.561 µM) |
| CCCCc1ccc(CN[C@@H](CCCN)C(=O)NC2(C)CC(OC3C(Oc4c5cc6cc4Oc4ccc(cc4Cl)C(O)C(NC(=O)C(CC(C)C)NC)C(=O)NC(CC(N)=O)C(=O)NC6C(=O)NC4C(=O)NC(C(=O)NC(C(=O)O)c6cc(O)cc(O)c6-c6cc4ccc6O)C(OC4CC(C)(N)C(O)C(C)O4)c4ccc(cc4)O5)OC(CO)C(O)C3O)OC(C)C2O)cc1 (stereo partly drawn) [Compound 242] | 1 (≈ 0.55 µM) | 8 (≈ 4.4 µM) | 1 (≈ 0.55 µM) | 0.25 (≈ 0.137 µM) | 4 (≈ 2.2 µM) | 4 (≈ 2.2 µM) | 8 (≈ 4.4 µM) | 0.5 (≈ 0.275 µM) |
| CNC(CC(C)C)C(=O)NC1C(=O)NC(CC(N)=O)C(=O)NC2C(=O)NC3C(=O)NC(C(=O)NC(C(=O)NC(C)C45CC6CC(CC(C6)C4)C5)c4cc(O)cc(O)c4-c4cc3ccc4O)C(OC3CC(C)(N)C(O)C(C)O3)c3ccc(cc3)Oc3cc2cc(c3OC2OC(CO)C(O)C(O)C2OC2CC(C)(N)C(O)C(C)O2)Oc2ccc(cc2Cl)C1O (stereo not drawn) [Compound 262] | 1 (≈ 0.582 µM) | 16 (≈ 9.31 µM) | 1 (≈ 0.582 µM) | 0.5 (≈ 0.291 µM) | 2 (≈ 1.16 µM) | 4 (≈ 2.33 µM) | 16 (≈ 9.31 µM) | 0.5 (≈ 0.291 µM) |
